A short description of one series: in vitro. To be noted: human.
Another series deals with EBOV GP. The conditions noted are these: cited from earlier work.
In series [1] the test system is pseudotyped WT-MARV. The series is described as follows: microbe, parasite or virus in culture. The class given is cell-based, Marburg virus. To be noted: for IC50: Human immunodeficiency virus 1, A549, read-out: IC50 (µM) (MARV).
In series [2] the test system is pseudotyped WT-EBOV. The series is described as follows: microbe, parasite or virus in culture. The class given is cell-based, Ebola virus.
The test system of series [3] is pseudotyped WT-MARV. Briefly: organism not typed. The class given is cell-based, Marburg virus. To be noted: read-out: MARV Inhibition (%).
Series [4] concerns pseudotyped WT-EBOV. Briefly: microbe, parasite or virus in culture. The class given is cell-based, Ebola virus. To be noted: Zaire ebolavirus, read-out: EBOV Inhibition (%).
The next series concerns the target EBOV HR2 peptide ([…]) (Zaire ebolavirus, UniProt Q05320). The class given is binding, Ebola virus. The conditions noted are these: pH 5.2.
For series [5], the system named is pseudotyped influenza H5N1. The class given is cell-based.
For series [6], the system named is pseudotyped vesicular stomatitis virus (VSV). The class given is cell-based.
Series [7] relates to lysotracker red accumulation in lysosomes, A549 cells. Briefly: cells. The class given is cell-based, Human. The conditions noted are these: for IC50: Homo sapiens, A549, read-out: IC50, inhibition of lysotracker red accumulation in lysosomes.
The target of another series is RAVN GPΔmucin (Lake Victoria marburgvirus, UniProt Q1PDC7). The conditions noted are these: 200 µM.
Another series concerns Ebola. To be noted: cited from earlier work.
The test system of another series is lysosomes. The conditions noted are these: cited from earlier work.
[8] abbreviates: Zaire ebolavirus, A549, read-out: IC50 (µM) (EBOV).

The values that follow come from PMC7888603 (PLoS Pathogens, 2021).

Entries after “also recorded” stand apart in the source; their conditions may differ. Where two headings read alike, the source gives them in different places.

In turn, `CN1[C@@H]2CC[C@H]1C[C@@H](OC(c1ccccc1)c1ccccc1)C2` [Benztropine] showed a CC50 in “in vitro” of 52.9 ± 6.1 µM.
The Kd is the equilibrium constant for the complex coming apart. A word on the IC50: it is the point on the concentration scale where inhibition reaches its midpoint. In the case of `CC(C)COCC(CN(Cc1ccccc1)c1ccccc1)N1CCCC1` (stereo not drawn) [Bepridil], the CC50 in “in vitro” came out at 34.7 ± 4.6 µM. Besides, the dissociation constant Kd on EBOV GP was 290 µM. For the same compound, the half-maximal inhibitory concentration (IC50) is 10 ± 2 µM in the series on pseudotyped WT-MARV [1] and 1.6 ± 0.8 µM in the series on pseudotyped WT-EBOV [2] (setting [8]).
`CCCCOc1cc(C(=O)NCCN(CC)CC)c2ccccc2n1` [Dibucaine]: the CC50 in “in vitro” stood at 67.1 ± 8 µM. Further, the values for the IC50 with pseudotyped WT-MARV [1] and with pseudotyped WT-EBOV [2] (setting [8]) were 6 ± 2 µM and 3.2 ± 0.2 µM, respectively.
What is called inhibition is the drop in the measured response relative to a control, in per cent. As to `CNCCC(Oc1ccc(C(F)(F)F)cc1)c1ccccc1` (stereo not drawn) [Fluoxetine], the CC50 in “in vitro” was 28.7 ± 0.1 µM. Further, in the series on pseudotyped WT-MARV [3], the inhibition at 0.625 µM amounted to 35.7%, the inhibition at 1.25 µM was 46.4%, the inhibition at 2.5 µM was determined as 62% and the inhibition at 5 µM came to 74.4%. For the same compound, the inhibition at 10 µM in the series on pseudotyped WT-MARV [3] is 88.8%. In addition, in the series on pseudotyped WT-EBOV [4], the inhibition at 0.625 µM amounted to 6.94%, the inhibition at 1.25 µM is 21.4%, the inhibition at 2.5 µM came to 44.8% and the inhibition at 5 µM was determined as 55.7%. Also, the inhibition at 10 µM in the series on pseudotyped WT-EBOV [4] came to 79.2%. Moreover, the “binding to EBOV HR2 peptide (NOESY)” value on EBOV HR2 peptide ([…]) was “intermolecular NOEs, highlighted by red arrows, are observed”. Besides, in series [5], the “inhibition of pseudotyped influenza H5N1” value is “no inhibition”. In addition, the “inhibition of pseudotyped vesicular stomatitis virus (VSV)” value in [6] is on record as “no inhibition”.
The compound `CN(C)CCCN1c2ccccc2CCc2ccccc21` [Imipramine] gave a CC50 in “in vitro” of 76.3 ± 7.4 µM. In addition, at EBOV GP, the dissociation constant Kd is 584 µM. The half-inhibitory concentration (IC50) in the series on pseudotyped WT-MARV [1] turned out to be 6.4 ± 0.6 µM; in the series with pseudotyped WT-EBOV [2] (setting [8]), 2.6 ± 0.1 µM.
In “in vitro”, `CC(=O)N[C@@H](CC(C)C)C(=O)N[C@@H](CC(C)C)C(=O)N[C@H](C=O)CCCNC(=N)N` [Leupeptin] yielded a CC50 of more than 100 µM. Further, the figures for the 50% inhibitory concentration (IC50) in the series on pseudotyped WT-MARV [1] and in the series with pseudotyped WT-EBOV [2] (setting [8]) were 0.6 ± 0.1 µM and 0.35 ± 0.07 µM, respectively.
For the compound `OCCOc1ccc(/C(=C(/CCCl)c2ccccc2)c2ccccc2)cc1` [Ospemifene], the CC50 worked out at 56 µM in the series “in vitro” (CC50 (µM)) and 57 µM in the series with A549 cells (human). The lysosome trapping entry in series [7] was “no trapping at any concentration; also recorded: no effect”. The “loss of potency for MARV” value in the series with pseudotyped WT-MARV [1] turned out to be 35 fold. Further, the 50% inhibitory concentration (IC50) with pseudotyped WT-MARV [1] was found to be 35 ± 3 µM; in the series with pseudotyped WT-EBOV [2] (setting [8]) it was 19 ± 10 µM. Moreover, the “decrease in Tm of MARV (RAVN) GP” value on RAVN GPΔmucin was found to be 2 °C.
`Fc1ccc([C@@H]2CCNC[C@H]2COc2ccc3c(c2)OCO3)cc1` [Paroxetine] yielded a CC50 in the series “in vitro” of 23.1 ± 6.3 µM. Further, the dissociation constant (Kd) on EBOV GP is 650 µM. Moreover, the IC50 in the series with pseudotyped WT-MARV [1] stood at 3.1 ± 0.1 µM; with pseudotyped WT-EBOV [2] (setting [8]), 0.34 ± 0.05 µM.
`CN[C@H]1CC[C@@H](c2ccc(Cl)c(Cl)c2)c2ccccc21` [Sertraline]: in “in vitro”, the CC50 was found to be 22.6 ± 6.2 µM.
`CN(C)CCOc1ccc(/C(=C(/CCCl)c2ccccc2)c2ccccc2)cc1` [Toremifene]: the CC50 in “in vitro” came to 26.9 ± 2.4 µM. The IC50 in [7] worked out at 9.7 µM. In the series on pseudotyped WT-MARV [1], the “Toremifene at 10 µM (% Infection)” value is recorded as 3% and the IC50 stood at 1.6 ± 0.6 µM. In addition, in the series on pseudotyped WT-MARV [3], the inhibition at 0.625 µM was -3.12%, the inhibition at 1.25 µM was -0.5%, the inhibition at 2.5 µM came to 23.1% and the inhibition at 5 µM turned out to be 71.2%. Also, the inhibition at 10 µM in the series on pseudotyped WT-MARV [3] stood at 99%. In the series with pseudotyped WT-EBOV [2] (setting [8]), the IC50 came out at 0.021 ± 0.009 µM. In addition, in the series on pseudotyped WT-EBOV [2] (Zaire ebolavirus, A549, read-out: Toremifene IC50 (µM)), the IC50 is 0.01 µM. In addition, on RAVN GPΔmucin, the “decrease in Tm of MARV (RAVN) GP” value was ~ 5 °C. Also, in the series on pseudotyped WT-EBOV [4], the inhibition at 0.0312 µM came to 5.93%, the inhibition at 0.0625 µM came out at 21.8%, the inhibition at 0.125 µM was 41.2% and the inhibition at 0.25 µM turned out to be 66.6%. In the series with pseudotyped WT-EBOV [4], the inhibition at 0.5 µM was found to be 88.5%. Besides, the “inhibition of pseudotyped vesicular stomatitis virus (VSV)” value in series [6] is given as “no inhibition”.
Consider `CCN(CC)CCCC(C)Nc1ccnc2cc(Cl)ccc12` (stereo not drawn) [chloroquine], for which, in [7], the 50% inhibitory concentration (IC50) worked out at 3.3 µM.
For `CNCCCN1c2ccccc2CCc2ccccc21` [desipramine], the “Ebola entry inhibition in screen of FDA approved drugs” value with Ebola is listed as “not Ebola entry inhibitors”. Also, in the series on lysosomes, the accumulation in lysosomes entry is listed as “accumulate in lysosomes”.
Turning to `CC(C)NCC(O)COc1cccc2ccccc12` (stereo not drawn) [propranolol], the “Ebola entry inhibition in screen of FDA approved drugs” value with Ebola is given as “not Ebola entry inhibitors”. The accumulation in lysosomes result in the series on lysosomes was “accumulate in lysosomes”.
On to CA-074, for which the IC50 in the series on pseudotyped WT-EBOV [2] (read-out: IC50 (µM) (EBOV)) turned out to be 32 ± 8 µM. Moreover, in the series with A549 cells, the CC50 was more than 100 µM.
